Test results taken from ChEMBL document CHEMBL1147166, “Structure-activity relationships of methoctramine-related polyamines as muscarinic antagonist: effect of replacing the inner polymethylene chain with cyclic moieties” (Bioorg Med Chem, 2007).

Tests used:
[1] = target: T1, Muscarinic acetylcholine receptor M2 (Homo sapiens) (UniProt P08172); assay: Antagonist potency at muscarinic receptor M2 in guinea pig atrium; format: functional, tissue-based; conditions: Cavia porcellus; Cardiac atrium; target entry is the homologue from another species
T1 sequence (whole entry): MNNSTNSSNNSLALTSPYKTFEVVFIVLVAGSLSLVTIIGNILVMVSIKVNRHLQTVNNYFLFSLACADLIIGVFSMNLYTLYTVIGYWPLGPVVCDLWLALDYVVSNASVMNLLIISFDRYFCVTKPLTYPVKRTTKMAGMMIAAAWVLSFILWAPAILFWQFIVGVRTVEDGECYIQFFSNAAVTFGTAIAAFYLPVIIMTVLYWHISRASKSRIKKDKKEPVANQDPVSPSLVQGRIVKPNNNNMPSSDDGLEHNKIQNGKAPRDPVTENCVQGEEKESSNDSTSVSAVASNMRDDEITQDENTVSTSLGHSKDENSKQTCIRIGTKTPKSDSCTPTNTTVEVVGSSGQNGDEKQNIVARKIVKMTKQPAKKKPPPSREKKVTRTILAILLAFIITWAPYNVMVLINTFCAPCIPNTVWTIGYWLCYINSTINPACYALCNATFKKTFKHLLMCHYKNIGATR

[2] = target: T2, Muscarinic acetylcholine receptor M4 (Homo sapiens) (UniProt P08173); assay: Antagonist potency at muscarinic receptor M4 in rabbit vas deferens; format: functional, tissue-based; conditions: Oryctolagus cuniculus, target entry is the homologue from another species
T2 sequence (whole entry): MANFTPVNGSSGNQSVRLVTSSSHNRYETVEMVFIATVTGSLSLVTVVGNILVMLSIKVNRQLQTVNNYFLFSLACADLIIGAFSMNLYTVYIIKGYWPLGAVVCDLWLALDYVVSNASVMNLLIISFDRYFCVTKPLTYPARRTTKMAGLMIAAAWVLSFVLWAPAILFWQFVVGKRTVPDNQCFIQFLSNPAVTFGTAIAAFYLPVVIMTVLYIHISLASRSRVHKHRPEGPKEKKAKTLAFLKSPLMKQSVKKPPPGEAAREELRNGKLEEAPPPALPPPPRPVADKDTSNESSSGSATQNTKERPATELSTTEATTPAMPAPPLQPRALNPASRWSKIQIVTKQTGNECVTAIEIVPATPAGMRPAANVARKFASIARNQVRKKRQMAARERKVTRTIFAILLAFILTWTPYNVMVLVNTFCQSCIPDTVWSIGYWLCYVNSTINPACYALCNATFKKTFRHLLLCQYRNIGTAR

[3] = target: Muscarinic acetylcholine receptor M3 (Cavia porcellus) (UniProt Q8VH26); assay: Antagonist potency at muscarinic receptor M3 in guinea pig ileum; format: functional, tissue-based
[4] = tested on: Mus musculus; assay: Antinociceptive activity in mouse assessed as licking latency at 0.05 ug, icv after 15 mins by hot plate method; format: functional
[5] = tested on: Mus musculus; assay: Antinociceptive activity in mouse assessed as licking latency at 0.01 ug, icv after 15 mins by hot plate method; format: functional
[6] = tested on: Mus musculus; assay: Antinociceptive activity in mouse assessed as licking latency at 0.005 ug, icv after 60 mins by hot plate method; format: functional
[7] = tested on: Mus musculus; assay: Antinociceptive activity in mouse assessed as licking latency at 0.005 ug, icv after 30 mins by hot plate method; format: functional
[8] = target: Muscarinic acetylcholine receptor M3 (Homo sapiens, UniProt P20309); assay: Displacement of [3H] N-methyl-scopolamine chloride from human muscarinic receptor M3 expressed in CHO cells; format: cell-based
[9] = tested on: Mus musculus; assay: Antinociceptive activity in mouse assessed as licking latency at 0.005 ug, icv after 15 mins by hot plate method; format: functional
[10] = tested on: Mus musculus; assay: Antinociceptive activity in mouse assessed as licking latency at 1.0 ug, icv after 30 mins by hot plate method; format: functional
[11] = target: T3, Muscarinic acetylcholine receptor M1 (Homo sapiens, UniProt P11229); assay: Displacement of [3H] N-methyl-scopolamine chloride from human muscarinic receptor M1 expressed in CHO cells; format: cell-based
T3 sequence (P11229 whole entry): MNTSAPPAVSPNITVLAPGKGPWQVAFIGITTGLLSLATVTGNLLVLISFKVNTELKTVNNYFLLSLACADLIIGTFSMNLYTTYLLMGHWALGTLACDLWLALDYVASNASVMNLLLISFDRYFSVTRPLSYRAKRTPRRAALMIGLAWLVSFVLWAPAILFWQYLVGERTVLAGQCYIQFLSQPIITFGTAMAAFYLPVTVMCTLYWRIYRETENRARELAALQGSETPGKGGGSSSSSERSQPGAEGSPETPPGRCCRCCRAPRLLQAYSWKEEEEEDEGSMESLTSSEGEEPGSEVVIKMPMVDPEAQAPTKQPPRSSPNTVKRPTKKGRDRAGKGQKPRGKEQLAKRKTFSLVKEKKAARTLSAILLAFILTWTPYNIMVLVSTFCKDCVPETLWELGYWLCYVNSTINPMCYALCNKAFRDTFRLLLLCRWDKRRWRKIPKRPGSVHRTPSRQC

[12] = tested on: Mus musculus; assay: Antinociceptive activity in mouse assessed as licking latency at 0.01 ug, icv after 60 mins by hot plate method; format: functional
[13] = tested on: Mus musculus; assay: Antinociceptive activity in mouse assessed as licking latency at 0.01 ug, icv after 45 mins by hot plate method; format: functional
[14] = tested on: Mus musculus; assay: Antinociceptive activity in mouse assessed as licking latency at 1.0 ug, icv after 15 mins by hot plate method; format: functional
[15] = target: T4, Muscarinic acetylcholine receptor M5 (Homo sapiens, UniProt P08912); assay: Displacement of [3H] N-methyl-scopolamine chloride from human muscarinic receptor M5 expressed in CHO cells; format: cell-based
T4 sequence (P08912 whole entry): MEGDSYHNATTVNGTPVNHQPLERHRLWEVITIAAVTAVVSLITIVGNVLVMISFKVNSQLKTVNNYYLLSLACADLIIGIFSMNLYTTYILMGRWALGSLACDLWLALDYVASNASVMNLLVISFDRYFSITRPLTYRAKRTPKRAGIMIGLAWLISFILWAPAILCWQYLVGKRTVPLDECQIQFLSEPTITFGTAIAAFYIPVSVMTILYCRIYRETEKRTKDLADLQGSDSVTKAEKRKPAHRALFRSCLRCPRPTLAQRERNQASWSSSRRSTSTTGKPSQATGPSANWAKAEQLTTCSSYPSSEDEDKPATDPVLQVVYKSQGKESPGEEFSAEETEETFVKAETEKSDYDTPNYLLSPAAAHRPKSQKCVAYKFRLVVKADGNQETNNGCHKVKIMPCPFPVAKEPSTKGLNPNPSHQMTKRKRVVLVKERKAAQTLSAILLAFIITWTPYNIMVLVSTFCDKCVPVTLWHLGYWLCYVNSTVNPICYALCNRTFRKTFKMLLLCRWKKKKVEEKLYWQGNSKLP

[16] = tested on: Mus musculus; assay: Antinociceptive activity in mouse assessed as licking latency at 1.0 ug, icv after 45 mins by hot plate method; format: functional
[17] = tested on: Mus musculus; assay: Antinociceptive activity in mouse assessed as licking latency at 0.05 ug, icv after 30 mins by hot plate method; format: functional
[18] = tested on: Mus musculus; assay: Antinociceptive activity in mouse assessed as licking latency at 0.05 ug, icv after 60 mins by hot plate method; format: functional
[19] = tested on: Mus musculus; assay: Antinociceptive activity in mouse assessed as licking latency at 0.01 ug, icv after 30 mins by hot plate method; format: functional
[20] = target: T5, Muscarinic acetylcholine receptor M4 (Homo sapiens, UniProt P08173); assay: Displacement of [3H] N-methyl-scopolamine chloride from human muscarinic receptor M4 expressed in CHO cells; format: cell-based
T5 sequence (P08173 whole entry): T2 sequence (whole entry)

[21] = tested on: Mus musculus; assay: Antinociceptive activity in mouse assessed as licking latency at 1.0 ug, icv after 60 mins by hot plate method; format: functional
[22] = tested on: Mus musculus; assay: Antinociceptive activity in mouse assessed as licking latency at 0.005 ug, icv after 45 mins by hot plate method; format: functional
[23] = tested on: Mus musculus; assay: Antinociceptive activity in mouse assessed as licking latency at 0.05 ug, icv after 45 mins by hot plate method; format: functional
[24] = tested on: Mus musculus; assay: Antinociceptive activity in mouse assessed as licking latency at 1 mg/kg, ip by hot plate method; format: functional; conditions: route intraperitoneal
[25] = target: Acetylcholinesterase (Homo sapiens, UniProt P22303); assay: Inhibition of human erythrocyte recombinant AchE after 20 mins
[26] = target: Cholinesterase (Homo sapiens, UniProt P06276); assay: Inhibition of human serum recombinant BChE after 20 mins
[27] = tested on: Mus musculus; assay: Antinociceptive activity in mouse assessed as licking latency at 5 mg/kg, ip by hot plate method; format: functional; conditions: route intraperitoneal

Muscarinic acetylcholine receptor M3 (Cavia porcellus), sequence (Q8VH26 1-587): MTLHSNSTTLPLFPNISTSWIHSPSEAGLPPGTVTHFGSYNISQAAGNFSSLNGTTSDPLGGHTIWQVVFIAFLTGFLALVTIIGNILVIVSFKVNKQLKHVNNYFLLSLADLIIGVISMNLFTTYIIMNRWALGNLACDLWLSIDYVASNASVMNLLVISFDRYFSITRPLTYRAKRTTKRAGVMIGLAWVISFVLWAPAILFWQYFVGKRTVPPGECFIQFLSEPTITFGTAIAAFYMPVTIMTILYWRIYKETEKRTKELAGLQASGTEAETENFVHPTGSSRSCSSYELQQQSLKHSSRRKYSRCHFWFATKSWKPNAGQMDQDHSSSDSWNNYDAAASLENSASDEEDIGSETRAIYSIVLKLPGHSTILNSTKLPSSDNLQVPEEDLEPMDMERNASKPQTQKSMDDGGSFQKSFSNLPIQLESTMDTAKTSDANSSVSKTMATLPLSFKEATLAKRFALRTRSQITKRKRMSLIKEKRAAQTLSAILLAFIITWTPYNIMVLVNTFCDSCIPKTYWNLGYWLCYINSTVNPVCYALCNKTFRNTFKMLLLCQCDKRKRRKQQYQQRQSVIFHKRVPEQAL
Acetylcholinesterase, sequence (P22303 whole entry): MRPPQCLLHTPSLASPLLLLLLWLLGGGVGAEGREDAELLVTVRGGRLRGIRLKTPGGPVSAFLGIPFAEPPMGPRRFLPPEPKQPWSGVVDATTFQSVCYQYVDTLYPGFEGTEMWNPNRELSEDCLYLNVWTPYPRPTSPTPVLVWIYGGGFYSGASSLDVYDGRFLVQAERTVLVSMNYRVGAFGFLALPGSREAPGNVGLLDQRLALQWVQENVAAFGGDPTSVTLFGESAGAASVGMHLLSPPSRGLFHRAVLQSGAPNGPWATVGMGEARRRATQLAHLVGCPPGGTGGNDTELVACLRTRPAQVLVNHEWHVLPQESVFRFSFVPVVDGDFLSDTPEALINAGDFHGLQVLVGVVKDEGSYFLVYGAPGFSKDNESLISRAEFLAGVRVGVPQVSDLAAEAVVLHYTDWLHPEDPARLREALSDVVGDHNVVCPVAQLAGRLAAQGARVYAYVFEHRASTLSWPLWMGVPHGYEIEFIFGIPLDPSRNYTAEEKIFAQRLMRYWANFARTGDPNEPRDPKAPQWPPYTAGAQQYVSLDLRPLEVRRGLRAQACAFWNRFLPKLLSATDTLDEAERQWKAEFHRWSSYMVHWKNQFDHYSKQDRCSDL
Muscarinic acetylcholine receptor M3, sequence (P20309 whole entry): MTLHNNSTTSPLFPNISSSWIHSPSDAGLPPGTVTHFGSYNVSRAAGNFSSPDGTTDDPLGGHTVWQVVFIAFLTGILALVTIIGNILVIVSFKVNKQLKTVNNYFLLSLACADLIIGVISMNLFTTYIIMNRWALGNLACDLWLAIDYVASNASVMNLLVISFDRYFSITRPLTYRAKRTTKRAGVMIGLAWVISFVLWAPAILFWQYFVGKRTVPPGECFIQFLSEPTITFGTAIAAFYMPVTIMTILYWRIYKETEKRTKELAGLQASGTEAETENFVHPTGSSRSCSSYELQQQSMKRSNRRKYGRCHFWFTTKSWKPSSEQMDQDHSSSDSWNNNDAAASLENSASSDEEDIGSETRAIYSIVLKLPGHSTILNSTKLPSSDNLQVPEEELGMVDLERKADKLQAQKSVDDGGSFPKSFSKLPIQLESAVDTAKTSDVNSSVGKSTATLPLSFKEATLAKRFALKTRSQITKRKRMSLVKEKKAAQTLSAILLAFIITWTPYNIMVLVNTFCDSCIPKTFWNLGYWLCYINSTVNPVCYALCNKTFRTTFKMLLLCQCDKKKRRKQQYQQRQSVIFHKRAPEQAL
Cholinesterase, sequence (P06276 whole entry): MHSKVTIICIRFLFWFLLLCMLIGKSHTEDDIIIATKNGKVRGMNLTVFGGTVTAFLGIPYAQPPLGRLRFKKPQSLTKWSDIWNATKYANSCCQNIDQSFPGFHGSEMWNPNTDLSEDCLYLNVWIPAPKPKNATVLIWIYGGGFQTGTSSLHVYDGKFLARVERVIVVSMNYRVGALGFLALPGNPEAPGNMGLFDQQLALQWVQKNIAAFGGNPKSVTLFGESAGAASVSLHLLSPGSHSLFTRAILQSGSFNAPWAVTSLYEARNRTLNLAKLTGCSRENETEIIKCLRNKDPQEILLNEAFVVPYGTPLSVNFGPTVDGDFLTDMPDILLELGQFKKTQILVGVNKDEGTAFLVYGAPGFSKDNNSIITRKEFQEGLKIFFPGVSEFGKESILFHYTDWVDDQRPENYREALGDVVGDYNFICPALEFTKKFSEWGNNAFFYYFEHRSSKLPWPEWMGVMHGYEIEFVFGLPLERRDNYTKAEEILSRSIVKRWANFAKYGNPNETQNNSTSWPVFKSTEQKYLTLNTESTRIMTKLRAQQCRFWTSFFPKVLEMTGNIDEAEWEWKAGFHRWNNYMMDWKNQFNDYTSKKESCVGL

Structure (SMILES)	pKb [1]	pKb [2]	pKb [3]	other results
COc1ccccc1CNCCCCCCNc1ccc(CCc2ccc(NCCCCCCNCc3ccccc3OC)cc2)cc1	< 5	< 5.52		
COc1ccccc1CNCCCCCC(=O)N1CCC(CCCC2CCN(C(=O)CCCCCNCc3ccccc3OC)CC2)CC1	5.11	< 5	5.09	
COc1ccccc1CNCCCCCC(=O)Nc1ccc(-c2ccc(NC(=O)CCCCCNCc3ccccc3OC)cc2)cc1	5.31	5.21		
COc1ccccc1CNCCCCCCNc1ccc(-c2ccc(NCCCCCCNCc3ccccc3OC)cc2)cc1	< 5	< 5		
COc1ccccc1CNCCCCCCN1CCC(CCCC2CCN(CCCCCCNCc3ccccc3OC)CC2)CC1	7.52	5.64	6.37	
COc1ccccc1CNCCCCCCNCCCCCCCCNCCCCCCNCc1ccccc1OC [METHOCTRAMINE]		6.45	6.32	Time [4]: 24.1 s; Time [5]: 23.4 s; Time [6]: 16.6 s; Time [7]: 18.4 s; Ki [8]: 0.525 µM; Time [9]: 20.2 s; Time [10]: 21.3 s; Ki [11]: 0.0832 µM; Time [12]: 17.2 s; Time [13]: 19.3 s; Time [14]: 20.6 s; Ki [15]: 0.55 µM; Time [16]: 17.5 s; Time [17]: 23.9 s; Time [18]: 14.4 s; Time [19]: 22.5 s; Ki [20]: 0.107 µM; Time [21]: 15.5 s; Time [22]: 18.3 s; Time [23]: 18.7 s
COc1ccccc1CNCCCCCCNc1ccc(Cc2ccc(NCCCCCCNCc3ccccc3OC)cc2)cc1	< 5	< 5	5.35	
C=CCN1CC[C@]23c4c5ccc(O)c4O[C@H]2C(=O)CC[C@@]3(O)[C@H]1C5 [NALOXONE]				Activity [24]: 15.1 s
COc1ccccc1CNCCCCCC(=O)N1CCC(C2CCN(C(=O)CCCCCNCc3ccccc3OC)CC2)CC1	6.5	6	5.62	
COc1ccccc1CNCCCCCC(=O)Nc1ccc(Cc2ccc(NC(=O)CCCCCNCc3ccccc3OC)cc2)cc1	5.47	< 5	5.32	
COc1ccccc1CNCCCCCCN1CCC(CC2CCN(CCCCCCNCc3ccccc3OC)CC2)CC1	7.16	5.39	5.82	
COc1ccccc1CNCCCCCCN1CCC(C2CCN(CCCCCCNCc3ccccc3OC)CC2)CC1	7.12	6.13	6.08	
COc1ccccc1CNCCCCCC(=O)N1CCC(CC2CCN(C(=O)CCCCCNCc3ccccc3OC)CC2)CC1	6.29	5.37	5.48	
COc1ccccc1CNCCCCCC(=O)Nc1ccc(CCc2ccc(NC(=O)CCCCCNCc3ccccc3OC)cc2)cc1	< 5	< 5	< 5	
COc1ccccc1CNCCCCCC(=O)N1CCC(CCC2CCN(C(=O)CCCCCNCc3ccccc3OC)CC2)CC1	5.91	6.09	5.14	IC50 [25]: 0.135 µM; IC50 [26]: 18.6 µM
CN1[C@@H]2CC[C@H]1C[C@@H](OC(=O)C(CO)c1ccccc1)C2 (some centres not stated) [ATROPINE]				Activity [27]: 14.9 s
